How the values were obtained:
[1] = tested on: normal NK cells expanded with K562-aAPC; test: percent inhibition of viability; higher = more inhibition; settings: 72 h, IL-2 2.5 ng/mL
Description: (§1)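 Drug sensitivity and resistance testing on K562-aAPC-expanded normal NK cells: 5 concentrations (10-fold steps over a 10,000-fold range), 72 h at 37 °C, viability by CellTiter-Glo normalised to DMSO and benzethonium chloride controls; DSS from the fitted curve.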

[2] = tested on: DERL-7 (IL-2 2.5 ng/mL); test: as above; settings: 72 h
[3] = tested on: IMC-1 (IL-2 20 ng/mL); test: as above; settings: 72 h
[4] = tested on: KAI3 (IL-2 2.5 ng/mL); test: as above; settings: 72 h
[5] = tested on: KHYG-1 (IL-2 2.5 ng/mL); test: as above; settings: 72 h
[6] = tested on: NK-92 (IL-2 2.5 ng/mL); test: as above; settings: 72 h
[7] = tested on: NK-YS (IL-2 2.5 ng/mL); test: as above; settings: 72 h
[8] = tested on: NKL (IL-2 2.5 ng/mL); test: as above; settings: 72 h
[9] = tested on: SNK-6 (IL-2 2.5 ng/mL); test: as above; settings: 72 h
[10] = tested on: YT (IL-2 2.5 ng/mL); test: as above; settings: 72 h
[11] = tested on: normal primary NK cells, pool 1 (3 donors) (IL-2 2.5 ng/mL); test: as above; settings: 72 h
[12] = tested on: normal primary NK cells, pool 1 (3 donors), resting (IL-2 0 ng/mL); test: as above; settings: 72 h
[13] = tested on: normal primary NK cells, pool 2 (3 donors) (IL-2 2.5 ng/mL); test: as above; settings: 72 h
[14] = tested on: normal primary NK cells, pool 3 (3 donors) (IL-2 2.5 ng/mL); test: as above; settings: 72 h
[15] = tested on: normal NK cells expanded with K562-aAPC; test: drug sensitivity score (DSS) (DSS units); higher = more sensitive; extreme values may be limits of the assay; settings: 72 h; IL-2 2.5 ng/mL
Description: as §1

[16] = tested on: DERL-7 (IL-2 2.5 ng/mL); test: as above; settings: 72 h
[17] = tested on: IMC-1 (IL-2 20 ng/mL); test: as above; settings: 72 h
[18] = tested on: KAI3 (IL-2 2.5 ng/mL); test: as above; settings: 72 h
[19] = tested on: KHYG-1 (IL-2 2.5 ng/mL); test: as above; settings: 72 h
[20] = tested on: NK-92 (IL-2 2.5 ng/mL); test: as above; settings: 72 h
[21] = tested on: NK-YS (IL-2 2.5 ng/mL); test: as above; settings: 72 h
[22] = tested on: NKL (IL-2 2.5 ng/mL); test: as above; settings: 72 h
[23] = tested on: SNK-6 (IL-2 2.5 ng/mL); test: as above; settings: 72 h
[24] = tested on: YT (IL-2 2.5 ng/mL); test: as above; settings: 72 h
[25] = tested on: normal primary NK cells, pool 1 (3 donors) (IL-2 2.5 ng/mL); test: as above; settings: 72 h
[26] = tested on: normal primary NK cells, pool 1 (3 donors), resting (IL-2 0 ng/mL); test: as above; settings: 72 h
[27] = tested on: normal primary NK cells, pool 2 (3 donors) (IL-2 2.5 ng/mL); test: as above; settings: 72 h
[28] = tested on: normal primary NK cells, pool 3 (3 donors) (IL-2 2.5 ng/mL); test: as above; settings: 72 h

Cc1ccc(F)c(NC(=O)Nc2ccc(-c3cccc4[nH]nc(N)c34)cc2)c1 [Linifanib] (max concentration tested 1000 nM)
percent inhibition of viability [%]
Settings	0.1 nM	1 nM	10 nM	100 nM	1000 nM
[1]	-6.15	-1.69	-7.22	-1.27	8.03
[2]	-3.48	1.81	3.09	2.4	-1.99
[3]	-6.64	-7.44	-3.21	-3.37	1.06
[4]	-0.03	-0.25	-3.05	7.49	15.8
[5]	-6.67	-7.43	-4.03	-0.13	5.26
[6]	-24.1	-23.8	-13.7	-0.86	25.2
[7]	-6.27	-8.05	-4.24	4.76	5.97
[8]	-6.64	-0.61	0.44	14.6	17.6
[9]	-2.9	19.3	2.79	-3.57	-1.81
[10]	-5.45	-5.75	-1.04	3.95	7.04
[11]	-6.2	0.66	14.2	7.19	6.85
[12]	-0.38	0.34	17.6	14.6	9.36
[13]	-14	-8.34	-3.37	7.22	4.22
[14]	-14.8	-8.58	1.59	7.84	2.88

Settings	drug sensitivity score
[15]	0
[16]	0
[17]	0
[18]	0.91
[19]	0
[20]	0.9
[21]	0
[22]	1.69
[23]	0
[24]	0
[25]	0.05
[26]	3.83
[27]	0
[28]	0

Nc1ccccc1NC(=O)c1ccc(CNC(=O)OCc2cccnc2)cc1 [Entinostat] (max concentration tested 10000 nM)
percent inhibition of viability [%]
Settings	1 nM	10 nM	100 nM	1000 nM	10000 nM
[1]	-3.4	0.57	-3.46	17.8	99.5
[2]	0.45	2.75	-7.22	24.5	99.7
[3]	2.59	0.46	1.95	10.1	99.8
[4]	-0.78	3.8	18.4	66.9	94
[5]	-9.03	-10.2	-4.46	50.8	95.8
[6]	-11.3	-2.61	7.67	73.5	96.4
[7]	-7.17	-13.1	-7.95	20.5	95.3
[8]	-7.74	-3.03	2.66	77.8	94
[9]	9.17	8.55	15.6	65	95.2
[10]	0.9	-0.08	4.17	7.95	93.3
[11]	-1.3	1.71	4.63	34.1	97.6
[12]	-8	-8.09	10.2	61.1	92.3
[13]	-6.42	-3.08	-10.5	24.5	95.8
[14]	-13.6	-2.26	-9.76	3.4	97.7

Settings	drug sensitivity score
[15]	8.42
[16]	9.28
[17]	7.18
[18]	14.8
[19]	11.5
[20]	14.8
[21]	8.53
[22]	14.6
[23]	14.4
[24]	6.43
[25]	9.83
[26]	13
[27]	9.03
[28]	5.88

Cc1cc(C)c(CNC(=O)c2cc(-c3ccc(CN4CCOCC4)cc3)cc3c2cnn3C2CCCC2)c(=O)[nH]1 [EPZ-5687] (max concentration tested 10000 nM)
percent inhibition of viability [%]
Settings	1 nM	10 nM	100 nM	1000 nM	10000 nM
[1]	-0.71	-3.48	-3.69	-2.2	0.02
[2]	-1.37	6.73	-10.3	-3.14	3.39
[3]	-4.92	-2.89	-1.1	-3.52	-3.58
[4]	1.34	-2.83	3.75	-1.27	-8.91
[5]	-5.28	1.66	-5.39	-4.15	-3.04
[6]	-18.6	-17.5	-11.1	-7.12	-16.9
[7]	-6.64	-3.26	-5.52	-1.38	4.13
[8]	-7.92	-9.21	-9.03	-6.87	-4.34
[9]	-3.6	10.5	-5.25	-4.13	-15.8
[10]	-2.28	-2.31	-4.1	0.78	-1.43
[11]	-2.66	-3.34	-7.26	-0.16	1.72
[12]	-3.8	-2.57	0.76	26.6	18.2
[13]	-10.3	-5.37	-0.75	-12.1	-3.82
[14]	-6.45	-1.35	-6.34	-4.92	-4.19

Settings	drug sensitivity score
[15]	0
[16]	0
[17]	0
[18]	0
[19]	0
[20]	0
[21]	0
[22]	0
[23]	0
[24]	0
[25]	0
[26]	4.36
[27]	0
[28]	0

COCC(=O)NC/C=C/c1ccc2ncnc(Nc3ccc(Oc4ccc(C)nc4)c(C)c3)c2c1 (max concentration tested 10000 nM)
percent inhibition of viability [%]
Settings	1 nM	10 nM	100 nM	1000 nM	10000 nM
[1]	-7.95	-1.69	-8	-3.66	3.1
[2]	-3.08	-0.4	-4.63	9.9	33
[3]	-0.96	-1.82	-0.25	1.87	55.9
[4]	16.4	7.76	7.06	11.1	64.8
[5]	-2.05	-5.21	-2.56	-1.27	29.4
[6]	1.59	8.37	6.53	22.8	75
[7]	-0.22	0.49	1.46	4.98	25.6
[8]	1.03	-1.8	0.69	8.06	58.8
[9]	-0.22	-18.4	-12.7	-1.13	63.7
[10]	3.6	-0.32	0.57	9.46	48.2
[11]	-12	-6.34	-1.36	-3.88	14.2
[12]	14.9	9.42	15.7	21.2	61
[13]	1.3	6.76	-0.67	11.9	23.1
[14]	-5.66	4.44	4.87	10.9	5.97

Settings	drug sensitivity score
[15]	0
[16]	2.95
[17]	3.25
[18]	5.41
[19]	1.16
[20]	7.15
[21]	1.75
[22]	4.55
[23]	3.37
[24]	4.08
[25]	0.09
[26]	6.9
[27]	2.13
[28]	0.05

CCN1CCN(Cc2ccc(Nc3ncc(F)c(-c4cc(F)c5nc(C)n(C(C)C)c5c4)n3)nc2)CC1 [Abemaciclib] (max concentration tested 2500 nM)
percent inhibition of viability [%]
Settings	0.25 nM	2.5 nM	25 nM	250 nM	2500 nM
[1]	2.02	-3.3	4.81	17.7	41.3
[2]	-4.64	-2.09	8.58	51.3	73.9
[3]	1.3	-5.47	-5.79	-18.8	97.5
[4]	-4.55	-3.34	-6.9	-4.76	11.8
[5]	-1.33	-1.51	-0.04	42.8	79.8
[6]	-9.23	0.87	-2.31	7.25	42
[7]	-3.7	-3.12	0.09	18	95
[8]	-11.9	-8.91	-19.3	-11.8	38
[9]	22.8	13.2	4.72	15.4	29.8
[10]	-0.11	3.29	-1.68	5.51	7.94
[11]	-4.8	-6.62	-2.33	9.08	24.4
[12]	-12.7	-5.25	-10.3	-47.3	-83.7
[13]	-7.88	-7.14	0.77	1.36	50.7
[14]	-10.9	-4.53	-8.73	-3.71	11.1

Settings	drug sensitivity score
[15]	3.89
[16]	10.8
[17]	4.41
[18]	0.01
[19]	9.69
[20]	3.33
[21]	8.19
[22]	1.33
[23]	0.14
[24]	0
[25]	2.05
[26]	0.89
[27]	2.85
[28]	0
